Reference: PubChem BioAssay (NCI)
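Step 1: Grow cells in 96-well plates. Step 2: Expose to compound for 48 hours at 5 concentrations. Step 3: Interpolate endpoints linearly; if unreached, use highest concentration. The concentration for 50% growth inhibition is given as GI50. TGI: concentration producing complete growth inhibition.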

What was measured:
Test in all cases: inhibition of tumour cell growth, NCI panel, 48 h
SK-MEL-5 melanoma = system: SK-MEL-5 melanoma
OVCAR-3 ovarian = system: OVCAR-3 ovarian
BT-549 breast = system: BT-549 breast
NCI-H226 lung = system: NCI-H226 lung
SF-539 CNS = system: SF-539 CNS
A549 NSCLC = system: A549 NSCLC
SK-MEL-28 melanoma = system: SK-MEL-28 melanoma
MCF7 breast = system: MCF7 breast
SK-MEL-2 melanoma = system: SK-MEL-2 melanoma
DU-145 prostate = system: DU-145 prostate

SMILES | GI50 (SK-MEL-5 melanoma) [µM] | TGI (SK-MEL-5 melanoma) [µM] | GI50 (OVCAR-3 ovarian) [µM] | TGI (OVCAR-3 ovarian) [µM] | GI50 (BT-549 breast) [µM] | TGI (BT-549 breast) [µM] | GI50 (NCI-H226 lung) [µM] | TGI (NCI-H226 lung) [µM] | GI50 (SF-539 CNS) [µM] | TGI (SF-539 CNS) [µM] | GI50 (A549 NSCLC) [µM] | TGI (A549 NSCLC) [µM] | GI50 (SK-MEL-28 melanoma) [µM] | TGI (SK-MEL-28 melanoma) [µM] | GI50 (MCF7 breast) [µM] | TGI (MCF7 breast) [µM] | GI50 (SK-MEL-2 melanoma) [µM] | TGI (SK-MEL-2 melanoma) [µM] | GI50 (DU-145 prostate) [µM] | TGI (DU-145 prostate) [µM]
C(#Cc1ccccc1C#Cc1cnccn1)c1cnccn1 | 16.9 | 35.9 | 21.5 | > 63.1 | 21.6 | > 85.8 | 28.1 | > 78.4 | 27.8 | > 100 | 34.5 | > 86.3 | 46.9 | > 100 | 24.9 | > 67.5 | > 38.9 | > 61.1 | 21.8 | > 100
CN(C)Cc1c[nH]c2nc[nH]c(=O)c12 |  | > 100 |  | > 100 |  | > 100 |  | > 100 |  | 48.9 |  | > 100 |  | > 100 |  | 67.7 |  | > 100 |  | 64.8
Nc1ccccc1SC(CC(=O)c1ccccc1)c1c(Cl)cccc1Cl (stereo not given) | 9.17 | 21.2 | 3.4 | 12 | 3.46 | 13.3 | 14.9 | 40.6 | 6.17 | 20.5 | 21.8 | 58.1 | 11.6 | 23.9 | 1.25 | 13.1 | 6.33 | 18.2 | 5.8 | 18.3
COc1cc(/C=C/C(=O)c2cccc(-n3cc(-c4ccccc4)[nH]c3=O)c2)ccc1O | 2.48 | 6.65 | 2.33 | 6.06 | 2.91 | 14.7 | 6.35 | 17.8 | 2.19 | 5.78 | 4.18 | 17.8 | 0.722 | 3.07 | 1.94 | 6.65 | 3.81 | 15.1 | 2.32 | 5.37
Cc1ccc(-c2csc3ncnc(Nc4cccc(O)c4)c23)cc1 | 22.8 | 51.2 | 22.3 | 50.4 | 37 | 98.2 | 38.1 | > 100 | 37.7 | > 100 | 41.8 | 92.5 | 43.1 | > 100 | 41.6 | > 100 | 22.4 | 62.4 | 42.1 | > 100
O=C1/C(=C/c2ccccc2)CN(C(=O)/C=C/c2ccccc2)C/C1=C\c1ccccc1 |  | > 35 |  | 24.7 |  | 4.7 |  | 60.6 |  | 24.8 |  | 37.2 |  | 21.4 |  | 3.83 |  | 52 |  | 40.9
Cc1ccc(S(=O)(=O)NC(=O)Nc2ncn[nH]2)cc1 |  | > 100 |  | > 100 |  | > 100 |  | > 100 |  | > 100 |  | > 100 |  | > 100 |  | > 100 |  | > 100 |  | > 100
CC(=O)OC1CCC2(C)C(=CCC3C2CCC2(C)C3CC3OC4(CCC(C)CN4)C(C)C32)C1 (stereo not given) |  | > 100 |  | > 100 |  | > 100 |  | > 100 |  | > 100 |  | > 100 |  | > 100 |  | > 100 |  | > 100 |  | > 100
CCOC(=O)CCC(NC(=O)c1ccc(Oc2nc3cc(N)cc(N)c3nc2-c2ccccc2)cc1)C(=O)OCC (stereo not given) | 18 | 53.8 | 16.2 | 41.2 | 33.7 | > 100 | 2.94 | 25 | 34 | > 100 | > 100 | > 100 | 14.3 | 30.5 | 53.6 | > 100 | 40.7 | > 100 | 62.2 | > 100
CC(=O)OC1C(C)OC(Oc2c(-c3ccc(O)cc3)oc3cc(O)cc(O)c3c2=O)C(O)C1OC(C)=O (stereo not given) | 17.4 | 39.9 | 20.6 | 45.3 | 19.9 | 54.8 | 36.9 | > 100 | 29.1 | > 100 | 49.8 | > 100 | 29 | > 100 | 28.3 | > 100 | 21.1 | 49.3 | 31.7 | > 94.1
CCN(CC)CCNc1ccc2nc(C)n3c4ccc(OC)cc4c(=O)c1c23 |  | 19.1 |  | 19.8 |  | 22.5 |  | 7.11 |  | 18.7 |  | 15 |  | 25.9 |  | 6.57 |  | 28 |  | 13.3
CCn1cnc(C[C@H](NC(=O)[C@@H](NC(=O)Nc2cc(C(F)(F)F)cc(C(F)(F)F)c2)C(C)(C)C)C(=O)OC)c1 | > 10 | > 10 | > 10 | > 10 | > 10 | > 10 | > 10 | > 10 | > 10 | > 10 | > 10 | > 10 | > 10 | > 10 | > 10 | > 10 | > 10 | > 10 | > 10 | > 10
CCOC(=O)c1nc2sc(Cl)cn2c1/C=N/N=C(N)N | 1.72 | > 23.1 | 21.5 | 42.1 | 28.3 | > 59.6 | 26.3 | > 55.1 | 42.7 | > 100 | 26.9 | > 58.3 | 18.2 | 51 | 27.5 | > 58.7 | 36.5 | > 87.2 | 24.8 | > 67.5
O=C1C=CC(=O)N1c1ccc2ccccc2c1 | 16.4 | 30.4 | 3.23 | 8.75 | 14.3 | 27.8 | 16.8 | 33.3 | 17.7 | 33.9 | 20.3 | 43.2 | 16.8 | 34 | 16.6 | 41.4 | 17.9 | 35.3 | 12.3 | 25.6
C=CC(=O)N1CCN(c2nc(OC[C@@H]3CCCN3C)nc3c(F)c(-c4nc(N)cc(C)c4C(F)(F)F)c(Cl)cc23)[C@@H](C)C1 | 1.74 | 3.33 | 1.66 | 3.14 | 1.71 | 3.32 | 1.88 | 4.52 | 1.73 | 3.51 | 3.36 | 13.6 | 1.75 | 3.21 | 1.13 | 2.51 | 2.05 | 4.34 | 2.65 | 7.2
